Test results from US8513232B2, “Substituted spirocyclic piperidine derivatives as histamine-3 (H3) receptor ligands” (Cephalon, Inc., priority 2008, dated 2013).
Read-outs that look alike come from different tables or passages of the source.

Key:
human H3 receptor = molecular target: T1, human H3 receptor (Homo sapiens, UniProt Q9Y5N1); test: Human H3 radioligand binding ([3H]-N-alpha-methylhistamine, SPA)
T1 construct: expressed in transfected cells
Outline: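 SPA competition binding on membranes from CHO cells stably expressing human H3 receptor (10 μg protein/well) with ~1 nM [3H]-N-alpha-methylhistamine and compound at 0.01 nM-30 μM. Incubation 4 h at room temperature in 50 mM Tris-HCl pH 7.4, 5 mM MgCl2, 0.1% BSA; non-specific binding defined with 10 μM clobenpropit.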

[1] = molecular target: T2, rat histamine H3 receptor (Rattus norvegicus, UniProt Q9QYN8); test: Rat H3 radioligand binding ([3H]-N-alpha-methylhistamine, SPA)
T2 construct: encoding the entire 445-amino-acid rat histamine H3 receptor; expressed in transfected cells; membrane preparation
Outline: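 Membranes from CHO-A3 cells stably expressing full-length rat H3 receptor (10 μg protein/well) incubated 4 h at room temperature, protected from light, with ~1 nM [3H]-N-alpha-methylhistamine and compound (0.01 nM-30 μM) in 50 mM Tris HCl pH 7.4, 5 mM MgCl2, 0.1% BSA. Binding read by SPA; 10 μM clobenpropit defined non-specific binding.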

[2] = Human H3 binding, Table B, Examples 136-362, read-out: hum H3 binding Ki
[3] = Rat H3 binding, Table B, Examples 136-362, read-out: rat H3 binding Ki
[4] = human H3 binding, Table D, read-out: Human H3 Ki
[5] = rat H3 binding, Table D, read-out: Rat H3 Ki
[6] = Table C, human H3 binding, read-out: Human H3 Ki
[7] = Table C, rat H3 binding, read-out: Rat H3 Ki
[8] = Table A, human H3 binding, read-out: Human Ki
[9] = Table A, rat H3 binding, read-out: Rat Ki

T2 sequence (Q9QYN8 whole entry): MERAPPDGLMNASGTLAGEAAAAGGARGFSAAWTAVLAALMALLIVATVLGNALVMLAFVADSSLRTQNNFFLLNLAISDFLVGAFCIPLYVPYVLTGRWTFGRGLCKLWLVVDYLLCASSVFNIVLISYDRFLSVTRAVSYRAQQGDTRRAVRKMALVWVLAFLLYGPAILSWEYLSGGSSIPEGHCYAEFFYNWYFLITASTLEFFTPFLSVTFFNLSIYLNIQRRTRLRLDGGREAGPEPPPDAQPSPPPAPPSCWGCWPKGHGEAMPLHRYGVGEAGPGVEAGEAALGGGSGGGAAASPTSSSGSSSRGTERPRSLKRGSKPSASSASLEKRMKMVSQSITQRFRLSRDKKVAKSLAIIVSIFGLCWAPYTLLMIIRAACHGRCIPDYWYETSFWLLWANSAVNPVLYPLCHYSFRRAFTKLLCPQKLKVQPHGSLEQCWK
T1 sequence (Q9Y5N1 whole entry): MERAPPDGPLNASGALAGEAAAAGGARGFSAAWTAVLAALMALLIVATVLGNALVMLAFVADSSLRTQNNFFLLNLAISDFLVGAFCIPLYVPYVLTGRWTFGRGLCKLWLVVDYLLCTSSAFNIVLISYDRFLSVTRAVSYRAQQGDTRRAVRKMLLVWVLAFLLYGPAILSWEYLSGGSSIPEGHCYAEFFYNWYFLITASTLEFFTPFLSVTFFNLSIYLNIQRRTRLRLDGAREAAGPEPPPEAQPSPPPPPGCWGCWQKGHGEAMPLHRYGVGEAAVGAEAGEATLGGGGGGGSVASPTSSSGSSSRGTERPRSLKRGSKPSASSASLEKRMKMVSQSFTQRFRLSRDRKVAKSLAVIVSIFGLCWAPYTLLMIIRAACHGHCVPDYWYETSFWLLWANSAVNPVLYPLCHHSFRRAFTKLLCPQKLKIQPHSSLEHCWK

Row | Structure (SMILES) | Ki (human H3 receptor; [2]) [nM] | Ki [1, 3] [nM] | melting point | further results
1 | COCCNC(=O)c1c(F)cc(-c2ccc3c(c2)CCC2(CCN(C4CCC4)CC2)O3)cc1F [Example 256] | < 200 | < 200 | 64.9 to 65.4 °C | 
2 | Cn1cc(C(=O)Nc2ccc3c(c2)COC2(CCN(C4CCC4)CC2)O3)cn1 [Example 227] | < 200 | 200 to 1000 | 227 to 228 °C | 
3 | O=C1N(c2ccccc2)CCN1c1ccc2c(c1)COC1(CCN(C3CCC3)CC1)O2 [Example 207] | < 200 | < 200 | 195 to 197 °C | 
4 | Cc1noc(C)c1C(=O)N1CCN(c2ccc3c(c2)COC2(CCN(C4CCC4)CC2)O3)C(=O)C1 [Example 738] |  |  | 103 to 106 °C | Ki (human H3 receptor; [4]): < 200 nM; Ki [1, 5]: < 200 nM
5 | CCc1nnc(CCc2ccc3c(c2)COC2(CCN(C4CCC4)CC2)O3)o1 [Example 694] |  |  | 98 to 100 °C | Ki (human H3 receptor; [4]): < 200 nM; Ki [1, 5]: < 200 nM
6 | O=C(N1CCCC1)N1CCN(c2ccc3c(c2)COC2(CCN(C4CCC4)CC2)O3)CC1 [Example 307] | < 200 | < 200 | 132 to 135 °C | 
7 | O=C1CCN(c2ccc3c(c2)CCC2(CCN(C4CCC4)CC2)O3)CC1 [Example 399] |  |  | > 247 °C (dec.) | Ki (human H3 receptor; [6]): < 200 nM; Ki [1, 7]: < 200 nM
8 | c1cc2c(cc1N1CCC(OCC3CC3)CC1)CCC1(CCN(C3CCC3)CC1)O2 [Example 424] |  |  | 280 to 283 °C | Ki (human H3 receptor; [6]): < 200 nM; Ki [1, 7]: < 200 nM
9 | CN1CCN(c2ccc3c(c2)CCC2(CCN(C4CCC4)CC2)O3)CC1 [Example 364] |  |  | 125 to 126 °C | Ki (human H3 receptor; [6]): < 200 nM; Ki [1, 7]: < 200 nM
10 | CN(C)C(=O)N1CCN(c2ccc3c(c2)CCC2(CCN(C4CCC4)C2)O3)CC1 (stereo not drawn) [Example 339] | < 200 | < 200 | 231 to 233 °C | 
11 | NC(=O)COc1ccc2c(c1)CCC1(CCN(C3CCC3)CC1)O2 [Example 700] |  |  | 121 to 125 °C | Ki (human H3 receptor; [4]): < 200 nM; Ki [1, 5]: < 200 nM
12 | FC(F)(F)c1ccc(N2CCN(c3ccc4c(c3)CCC3(CCN(C5CCC5)CC3)O4)CC2)nc1 [Example 372] |  |  | 212 to 213 °C | Ki (human H3 receptor; [6]): < 200 nM; Ki [1, 7]: < 200 nM
13 | Cc1n[nH]c(C)c1-c1ccc2c(c1)CCC1(CCN(C3CCC3)CC1)O2 [Example 167] | < 200 | < 200 | 86 to 88 °C | 
14 | Cc1cc(-c2ccc3c(c2)CCC2(CCN(C4CCC4)CC2)O3)ccc1C(=O)NCCO [Example 238] | < 200 | < 200 | 78.5 to 79.8 °C | 
15 | COCCNC(=O)c1ccc(-c2cc3c(cc2Cl)OC2(CCN(C4CCC4)CC2)OC3)cc1 [Example 264] | < 200 | 200 to 1000 | 49 to 51 °C | 
16 | O=C(Nc1cccc(F)c1)Nc1ccc2c(c1)COC1(CCN(C3CCC3)CC1)O2 [Example 245] | < 200 | < 200 | 227 to 228 °C | 
17 | Cc1cc(=O)[nH]cc1-c1ccc2c(c1)COC1(CCN(C3CCC3)CC1)O2 [Example 651] |  |  | 217 to 220 °C | Ki (human H3 receptor; [4]): < 200 nM; Ki [1, 5]: < 200 nM

Row | Structure (SMILES) | Ki (human H3 receptor; [2]) [nM] | Ki [1, 3] [nM] | melting point | further results
18 | CS(=O)(=O)c1ccc(COc2ccc3c(c2)CCC2(CCN(C4CCC4)CC2)O3)cc1 [Example 617] |  |  | 142 to 146 °C | Ki (human H3 receptor; [4]): < 200 nM; Ki [1, 5]: < 200 nM
19 | c1cc(Oc2ccc3c(c2)CCC2(CCN(C4CCC4)CC2)O3)ccn1 [Example 273] | < 200 | < 200 | 266 to 268 °C | 
20 | O=c1[nH]cc(-c2ccc3c(c2)COC2(CCN(C4CCC4)CC2)O3)cc1Cl [Example 658] |  |  | 221.5 to 223.7 °C | Ki (human H3 receptor; [4]): < 200 nM; Ki [1, 5]: < 200 nM
21 | OC1CCC(c2ccc3c(c2)COC2(CCN(C4CCC4)CC2)O3)CC1 (stereo not drawn) [Example 531] |  |  | 113 to 115 °C | Ki (human H3 receptor; read-out: Human H3 Ki): < 200 nM; Ki ([1]; read-out: Rat H3 kI): < 200 nM
22 | CNC(=O)c1cnc(-c2ccc3c(c2)COC2(CCN(C4CCC4)CC2)O3)s1 [Example 164] | < 200 | < 200 | 200 to 203 °C | 
23 | Cc1c(-c2cc[nH]c(=O)c2)ccc2c1COC1(CCN(C3CCC3)CC1)O2 [Example 558] |  |  | > 300 °C | Ki (human H3 receptor; read-out: Human H3 Ki): < 200 nM; Ki ([1]; read-out: Rat H3 kI): < 200 nM
24 | COC(=O)CCc1ccc2c(c1)COC1(CCN(C3CCC3)CC1)O2 [Example 630] |  |  | 66 to 68 °C | Ki (human H3 receptor; [4]): < 200 nM; Ki [1, 5]: < 200 nM
25 | c1cnc(Oc2ccc3c(c2)CCC2(CCN(C4CCC4)CC2)O3)cn1 [Example 415] |  |  | 256 to 258 °C | Ki (human H3 receptor; [6]): < 200 nM; Ki [1, 7]: < 200 nM
26 | CS(=O)(=O)c1ccc(-c2ccc3c(c2)CC2(CCN(C4CCC4)CC2)O3)cc1 [Example 135, 1′-Cyclobutyl-spirobenzofuran-2(3H)-4′-piperidine-(5-(4-methylsulfonylphenyl))] |  |  | > 25 °C | Ki (human H3 receptor; [8]): < 200 nM; Ki [1, 9]: < 200 nM
27 | O=C(C1CC1)N1CCC(Oc2ccc3c(c2)CCC2(CCN(C4CCC4)CC2)O3)CC1 [Example 435] |  |  | 243 to 245 °C | Ki (human H3 receptor; [6]): < 200 nM; Ki [1, 7]: < 200 nM
28 | COc1ccc(Oc2ccc3c(c2)CCC2(CCN(C4CCC4)CC2)O3)cn1 [Example 481] |  |  | 232 to 234 °C | Ki (human H3 receptor; read-out: Human H3 Ki): < 200 nM; Ki ([1]; read-out: Rat H3 kI): < 200 nM
29 | CN(C)C(=O)c1ccccc1Nc1ccc2c(c1)COC1(CCN(C3CCC3)CC1)O2 [Example 166] | < 200 | < 200 | 50 to 53 °C | 
30 | CCN(CC)C(=O)N1CCN(c2ccc3c(c2)COC2(CCN(C4CCC4)CC2)O3)CC1 [Example 351] | < 200 | < 200 | 113 to 116.1 °C | 
31 | COCCN(C)C(=O)c1ccc(-c2ccc3c(c2)CCC2(CCN(C4CCC4)CC2)O3)cc1 [Example 303] | < 200 | < 200 | 225 to 227 °C | 
32 | N#Cc1ccc(Oc2ccc3c(c2)CCC2(CCN(C4CCC4)CC2)O3)cc1 [Example 223] | < 200 | < 200 | 237 to 239 °C | 
33 | FC1CCN(c2ccc3c(c2)CCC2(CCN(C4CCC4)CC2)O3)CC1 [Example 397] |  |  | > 265 °C (dec.) | Ki (human H3 receptor; [6]): < 200 nM; Ki [1, 7]: < 200 nM
34 | O=c1ncc(Oc2ccc3c(c2)CCC2(CCN(C4CCC4)CC2)O3)c[nH]1 [Example 495] |  |  | 259 to 261 °C | Ki (human H3 receptor; read-out: Human H3 Ki): < 200 nM; Ki ([1]; read-out: Rat H3 kI): < 200 nM

Now from value to molecule, other results behind:

Row | Ki (human H3 receptor; [2]) [nM] | Ki [1, 3] [nM] | melting point | Structure (SMILES) | further results
35 |  |  | 143 to 145 °C | COc1ccc(-c2ccc3c(c2)COC2(CCN(CCC4CCOCC4)CC2)O3)cn1 [Example 711] | Ki (human H3 receptor; [4]): > 1000 nM; Ki [1, 5]: > 1000 nM
36 |  |  | 148 to 149 °C | CCOC(=O)c1ccc(-c2ccc3c(c2)COC2(CCN(C4CCC4)CC2)O3)cc1 [Example 28] | Ki (human H3 receptor; [8]): < 200 nM; Ki [1, 9]: < 200 nM
37 |  |  | 109.3 °C | NC(=O)c1cccc(-c2ccc3c(c2)COC2(CCN(C4CCC4)CC2)O3)c1 [Example 58] | Ki (human H3 receptor; [8]): < 200 nM; Ki [1, 9]: < 200 nM
38 |  |  | 119 to 121 °C | FC(F)(F)COc1cc(-c2ccc3c(c2)COC2(CCN(C4CCC4)CC2)O3)c(Cl)cn1 [Example 782] | Ki (human H3 receptor; [4]): < 200 nM; Ki [1, 5]: < 200 nM
39 |  |  | 207 to 209 °C | O=c1cccc(-c2ccc3c(c2)COC2(CCN(C4CCC4)CC2)O3)[nH]1 [Example 476] | Ki (human H3 receptor; read-out: Human H3 Ki): < 200 nM; Ki ([1]; read-out: Rat H3 kI): < 200 nM
40 |  |  | 96 to 98 °C | COc1ccc(-c2cc3c(cc2C)OC2(CCN(C4CCC4)CC2)OC3)cn1 [Example 544] | Ki (human H3 receptor; read-out: Human H3 Ki): < 200 nM; Ki ([1]; read-out: Rat H3 kI): < 200 nM
41 |  |  | 230 to 231 °C | CCc1[nH]c(=O)ccc1-c1ccc2c(c1)COC1(CCN(C3CCC3)CC1)O2 [Example 767] | Ki (human H3 receptor; [4]): < 200 nM; Ki [1, 5]: < 200 nM
42 |  |  | 128 to 130 °C | O=C(NC[C@@H]1CCCO1)c1ccc(-c2ccc3c(c2)COC2(CCN(C4CCC4)CC2)O3)cc1F [Example 589] | Ki (human H3 receptor; [4]): < 200 nM; Ki [1, 5]: < 200 nM
43 | < 200 | < 200 | 156 to 158 °C | CC(C)(O)CNC(=O)c1ccc(-c2ccc3c(c2)COC2(CCN(C4CCC4)CC2)O3)cc1 [Example 155] | 
44 |  |  | 211 to 213 °C | O=c1cc(-c2ccc3c(c2)COC2(CCN(C4CCC4)CC2)O3)cc[nH]1 [Example 475] | Ki (human H3 receptor; read-out: Human H3 Ki): < 200 nM; Ki ([1]; read-out: Rat H3 kI): < 200 nM
45 | < 200 | < 200 | 146.5 to 148 °C | CC(C)NC(=O)c1ccc(-c2ccc3c(c2)COC2(CCN(C4CCC4)CC2)O3)cc1F [Example 356] | 
46 |  |  | 94 to 96 °C | COc1cc(-c2ccc3c(c2)COC2(CCN(C4CCC4)CC2)O3)ccc1C(=O)N1CCOCC1 [Example 636] | Ki (human H3 receptor; [4]): < 200 nM; Ki [1, 5]: < 200 nM
47 |  |  | 131 to 134 °C | OCc1ccc(-c2ccc3c(c2)COC2(CCN(C4CCC4)CC2)O3)cc1 [Example 44] | Ki (human H3 receptor; [8]): < 200 nM; Ki [1, 9]: < 200 nM
48 |  |  | 91 to 93 °C | Cc1cscc1-c1ccc2c(c1)COC1(CCN(C3CCC3)CC1)O2 [Example 785] | Ki (human H3 receptor; [4]): < 200 nM; Ki [1, 5]: < 200 nM
49 |  |  | 186 to 187 °C | CC(=O)Nc1ccc(-c2ccc3c(c2)COC2(CCN(C4CCC4)CC2)O3)cn1 [Example 46] | Ki (human H3 receptor; [8]): < 200 nM; Ki [1, 9]: < 200 nM
